Assay results published in patent US20240164376A1, “SYNERGISTIC PLANT GROWTH STIMULANT COMPOSITIONS OF POTASSIUM MONO/DI-FORMATE WITH NITROGENOUS COMPOUNDS” (FERTIS INDIA PVT LTD, priority 2021, published 2024).

system: paddy grains; test: Protein content in the paddy grains; type: in vivo

SMILES	% Of Protein [%]
CNC(=O)NC [Dimethyl urea]	0.0081
NC(N)=O [Urea]	0.0063
NC(=O)N(C=O)C=O [N,Ndiformyl urea (NN-DFU), N,Ndiformyl urea]	0.0112
O=C[O-].[K+] [Potassium formate]	0.0091
O=CO.O=C[O-].[K+] [Potassium diformate]	0.0093
O=C(Nc1ccccc1)Nc1ccccc1 [Diphenyl urea]	0.0089
